Tests used:
[1] = compared with seco product (78); Tietze et al.; cited from earlier work
[2] = tested on: senescent lung cells in C57BL/6 mice; assay: Senolytic effect of compound (119) on doxorubicin-induced senescent lung cells after in vivo administration; parameters: species or system mouse
Protocol: Four groups of C57BL/6 mice (N=9/group) were injected intravenously with doxorubicin (15 mg/kg) to induce senescence in lung tissue. Five days later groups were injected with vehicle or compound (119) (aka RBO-019) (10, 20 or 40 mg/kg i.v.). After an additional 3 days lungs were removed and the left lobes sectioned before staining for SA-β-Gal as previously described (FIGS. 5A and 5B). […] This senolytic effect was also corroborated by using quantitative PCR to detect mRNA levels of Cdkn2a (p16^INK4a). Expression levels were reported relative to Actb as the reference gene.

[3] = tested on: Normal human fibroblasts (IMR90); assay: Compound toxicity towards normal proliferative, senescent or quiescent fibroblasts (XTT cell viability assay); assay type: cell-based; conditions: IC50 against normal, proliferating cells divided by IC50 versus senescent (doxorubicin-induced) cells, three days treatment
Protocol: Normal human fibroblasts (IMR90) and patient-derived β-galactosidase (GLB1) or α-fucosidase (FUCA1) deficient cells were used to determine change in cell viability after exposure to compound. Cells were cultured with DMEM and 10% heat inactivated FBS under a controlled atmosphere of 5% carbon dioxide and 5% oxygen, […] and confirmed by the absence of senescence associated β-galactosidase (SA-β-Gal) staining and the capacity to re-enter the cell cycle. Senescence was induced by treatment with doxorubicin and confirmed by SA-β-Gal positive staining and the lack of DNA replication. Cells were treated with compound for three days. Cell viability was determined by mitochondrial dehydrogenase activity (XTT assay. Cayman Chemical) at ten concentrations of the tested compound. To generate dose-response curves, data was fitted to a four-parameter Hill function and the IC50 was determined at Y=0.5 viability. The senolytic index (S.I.) for each compound was determined by dividing the IC50 against normal, proliferating cells by the IC50 versus senescent cells. Senolytic index data is shown in Table 1 with compounds having S.I.<1 (−), S.I>1 (+), S.I.>5 (++) and S.I>10 (+++).

[4] = tested on: senescent C57BL/6 mouse hepatocytes; assay: Effect of compound (113) on doxorubicin-induced senescent hepatocytes after in vivo administration
Protocol: Two groups of C57BL/6 mice (N=9/group) were injected intraperitoneally with doxorubicin (20 mg/kg) to induce hepatocellular senescence. 4 and 6 days later groups were injected i.p. with PBS or compound (113) (aka RBO-013) (2×20 mg/kg). A third group of animals served as controls. After an additional 2 days livers were removed and sectioned (30 μm) before staining for SA-β-Gal as previously described (FIGS. 4A and 4B). […] This senolytic effect was also corroborated by using quantitative PCR to detect mRNA levels of Cdkn2a (p16^INK4a) and IL-6 (N.B. Cdkn2a expression was exclusively detected in animals that received doxorubicin). Expression levels were reported relative to Actb as the reference gene.

C57BL/6 mice = assay: Comparative toxicity of FURGal and FUR to C57BL/6 mice; assay type: in vivo; conditions: six days after treatment
Protocol: Equimolar doses of (101)(160 mg/kg) and (102) (100 mg/kg) were administered by single dose intraperitoneal injection to 2 groups of mice (N=3 each). Six days after treatment blood cell counts were determined by standard methods (FIG. 2A), bone marrow cells from femur were counted (FIG. 2B) and spleen weights (FIG. 2C) determined to compare the toxicity of the two drugs.

[5] = tested on: Mouse embryonic fibroblast cells (MEFs); assay: Viability of proliferating or senescent mouse embryonic fibroblasts (DAPI/PI staining); assay type: cell-based; conditions: 4 days; for toxicity towards senescent MEFs: doxorubicin-induced senescent MEFs, FIG. 1B; for cell viability / toxicity towards proliferating cells: proliferating MEFs, increasing concentrations (as high as 4 mM), FIG. 1A
Protocol: Mouse embryonic fibroblast cells were incubated with 300 nM doxorubicin for 24 hrs to induce senescence. Cells were washed and after incubation in media for 7 days, senescence was confirmed by staining for SA-β-Gal (Itahana et al., Methods Mol. Biol. 371 (2007) 21-31) and lack of incorporation of 5-ethynyl-2′-deoxyuridine (EdU) (see Yu et al., J. Immunol. Methods 350 (2009) 29-35).
Proliferating or senescent MEFs were treated with increasing concentrations of either FURGal (101) or 5-fluorouridine (FUR) (102) for 4 days. Cells were washed and stained with 4′,6-diamidino-2-phenylindole (DAPI) and propidium iodide (PI) and the fraction of viable cells was assessed from the ratio of PI-positive nuclei over PI-negative nuclei.

[6] = tested on: senescent C57BL/6 mouse hepatocytes; assay: Effect of FURGal on doxorubicin-induced senescent hepatocytes after in vivo administration; conditions: doxorubicin 25 mg/kg i.p.; FURGal 140 mg/kg 4 and 6 days later; livers after additional 4 days; FIG. 3C
Protocol: Two groups of C57BL/6 mice (N=5/group) were injected intraperitoneally with doxorubicin (25 mg/kg) to induce hepatocellular senescence. 4 and 6 days later groups were injected with PBS or FURGal (140 mg/kg) (101). A third group of 5 animals served as controls. After an additional 4 days livers were removed and sectioned (30 μm) before staining for SA-β-Gal (6 fields/animal were assessed) (FIGS. 3A and 3B).

C[C@@H](Cl)[C@@H]1CN(C(=O)c2cc3cc(OCCN(C)C)ccc3[nH]2)c2cc(O[C@@H]3O[C@H](CO)[C@H](O)[C@H](O)[C@H]3O)c3ccccc3c21 [Compound (77)]
fold less cytotoxic than hydrolyzed seco product (78) [1]: greater than 4000 fold

CC(=O)O[C@H]1[C@H](OC(C)=O)[C@H](ONC(=O)/C=C/c2ccc(CNCCc3c(C)[nH]c4ccccc34)cc2)O[C@@H](C)[C@H]1OC(C)=O [(119), (2S,3R,4R,5S,6S)-2-Methyl-6-(((E)-3-(4-(((2-(2-methyl-1H-indol-3-yl)ethyl)amino)methyl)phenyl)acrylamido)oxy)tetrahydro-2H-pyran-3,4,5-triyl triacetate]
SA-β-Gal staining in lung sections ([2]; doxorubicin 15 mg/kg i.v., 10, 20 or 40 mg/kg i.v. five days later, lungs after additional 3 days, FIG. 5C): dose-dependent reduction
Cdkn2a gene expression in lung ([2]; quantitative PCR, relative to Actb, 10, 20 or 40 mg/kg i.v., FIG. 5D): dose-dependent reduction
Senolytic Index (S.I.) [3]: +++ (S.I>10 (+++))

CC(=O)OC[C@H]1O[C@@H](ONC(=O)/C=C/c2ccc(CNCCc3c(C)[nH]c4ccccc34)cc2)[C@H](OC(C)=O)[C@@H](OC(C)=O)[C@H]1OC(C)=O [(113), (2R,3S,4S,5R,6S)-2-(Acetoxymethyl)-6-(((E)-3-(4-(((2-(2-methyl-1H-indol-3yl)ethyl)amino)methyl)phenyl)acrylamido)oxy)tetrahydro-2H-pyran-3,4,5-triyl Triacetate]
Senolytic Index (S.I.) [3]: +++ (S.I>10 (+++))
senescent hepatocytes (as visualized by SA-β-Gal staining) ([4]; doxorubicin 20 mg/kg i.p., 2×20 mg/kg i.p. 4 and 6 days later, livers after additional 2 days, FIG. 4C): reduction
Cdkn2a (p16INK4a) gene expression in liver ([4]; quantitative PCR, relative to Actb, doxorubicin 20 mg/kg, 2×20 mg/kg i.p., FIG. 4D): significant reduction
IL-6 gene expression in liver ([4]; quantitative PCR, relative to Actb, doxorubicin 20 mg/kg, 2×20 mg/kg i.p., FIG. 4E): significant reduction

O=c1[nH]c(=O)n([C@@H]2O[C@H](CO[C@@H]3O[C@H](CO)[C@H](O)[C@H](O)[C@H]3O)[C@@H](O)[C@H]2O)cc1F [(101), 5-fluorouridine-5′-O-β-D-galactopyranoside]
toxicity towards platelets, neutrophils, lymphocytes and bone marrow cells (C57BL/6 mice; equimolar single i.p. dose: (101) 160 mg/kg, (102) 100 mg/kg, FIG. 2A, 2B): negligible toxicity
effects on spleen weight (C57BL/6 mice; single i.p. dose 160 mg/kg, in comparison to FUR (102) 100 mg/kg, FIG. 2C): minimal effects
toxicity towards senescent MEFs [5]: equitoxic
cell viability / toxicity towards proliferating cells [5]: completely non-toxic
Senolytic Index (S.I.) [3]: +++ (S.I>10 (+++))
senescent hepatocytes (SA-β-Gal staining of liver sections) [6]: numerical trend for a reduction

O=c1[nH]c(=O)n([C@@H]2O[C@H](CO)[C@@H](O)[C@H]2O)cc1F [(102), 5-fluorouridine, reference compound]
toxicity towards senescent MEFs [5]: equitoxic
cell viability / toxicity towards proliferating cells [5]: dramatically reduces cell viability
